From article PMC10066365, “Nemacol is a small molecule inhibitor of C. elegans vesicular acetylcholine transporter with anthelmintic potential” (Nature Communications, 2023)
Several values for one entry are separate records, joined by “and”; a condition that tells them apart may be missing. Equal entries are not always repeated.

Experiments:
Pristionchus pacificus = Pristionchus pacificus motor disruption dose-response on solid media, 1 h; settings: for mean % any phene (coiled, jerky-Unc or paralyzed): Pristionchus pacificus young adults, mean of three biological replicates
C. elegans = C. elegans motor phenotype scoring on solid media (Punc/jerky-unc, coiled, paralyzed), wild-type young adults; assay type: in vivo, Caenorhabditis elegans; settings: for any phene, mean % fraction of young adults exhibiting any phenotype (coiled, jerky-Unc or paralyzed) / atypical locomotion (number of animals) / coiled (number of animals) / no phene (number of animals) / paralyzed (number of animals): one hour; for any phene, mean % fraction of young adults exhibiting any phenotype (coiled, jerky-Unc or paralyzed): mean of three biological replicates; for atypical locomotion (number of animals) / coiled (number of animals) / no phene (number of animals) / paralyzed (number of animals): young adults, 20 animals per trial, single replicate counts; for AVERAGES Fraction Coiled / AVERAGES Fraction Paralyzed / AVERAGES Fraction Punc: average of 3 replicates
[1] = 15 μM, 30 min, single replicate
[2] = 15 μM, 60 min, single replicate
[3] = 15 μM, 90 min, single replicate
[4] = 15 μM, 120 min, single replicate
[5] = 15 μM, 240 min, single replicate
[6] = 15 μM, 360 min, single replicate
[7] = 30 μM, 30 min, single replicate
[8] = 30 μM, 60 min, single replicate
[9] = 30 μM, 90 min, single replicate

`O=[N+]([O-])c1ccc(N2CCN(CC3CC=CCC3)CC2)cc1` (centres unmarked) [Nemacol-4] was tested, and the “mean % any phene (coiled, jerky-Unc or paralyzed)” value (from here on “mean % any phene”) (Pristionchus pacificus; conc 3.75, observed at one hour) was 0%, the “mean % any phene” value (Pristionchus pacificus; conc 15, observed at one hour) was 15.8333% and the “mean % any phene” value (Pristionchus pacificus; conc 60, observed at one hour) was 100%. The EC50 (Pristionchus pacificus; Pristionchus pacificus, 1 h, read-out: P. pacificus motor disruption EC50) was 19.2 µM, the “any phene, mean % fraction of young adults exhibiting any phenotype (coiled, jerky-Unc or paralyzed)” value (C. elegans; 3.75uM) was 15% and the “atypical locomotion (number of animals)” value (C. elegans; 3.75uM) was 0 and 4 and 11. For the same compound, the “coiled (number of animals)” value (C. elegans; 3.75uM) was 0 and 1, the “no phene (number of animals)” value (C. elegans; 3.75uM) was 20 and 14 and 8 and the “paralyzed (number of animals)” value (C. elegans; 3.75uM) was 0 and 1. For the same compound, the “AVERAGES Fraction Coiled” value (C. elegans; 15 μM, 30 min) was 0.0, the “AVERAGES Fraction Paralyzed” value (C. elegans; 15 μM, 30 min) was 0.0 and the “AVERAGES Fraction Punc” value (C. elegans; 15 μM, 30 min) was 0.222. The “C1 (number of animals)” value (C. elegans; [1]) was 0, the “C2 (number of animals)” value (C. elegans; [1]) was 0 and the “Fraction Coiled” value (C. elegans; [1]) was 0.0. For the same compound, the “Fraction Paralyzed” value (C. elegans; [1]) was 0.0, the “Fraction Punc” value (C. elegans; [1]) was 0.111 and 0.4 and the “NP (number of animals)” value (C. elegans; [1]) was 16 and 11. The “P (number of animals)” value (C. elegans; [1]) was 0, the “Punc (number of animals)” value (C. elegans; [1]) was 2 and 7 and the “AVERAGES Fraction Coiled” value (C. elegans; 15 μM, 60 min) was 0.0185. The “AVERAGES Fraction Paralyzed” value (C. elegans; 15 μM, 60 min) was 0.0, the “AVERAGES Fraction Punc” value (C. elegans; 15 μM, 60 min) was 0.426 and the “C1 (number of animals)” value (C. elegans; [2]) was 1. For the same compound, the “C2 (number of animals)” value (C. elegans; [2]) was 0, the “Fraction Coiled” value (C. elegans; [2]) was 0.0556 and the “Fraction Paralyzed” value (C. elegans; [2]) was 0.0. For the same compound, the “Fraction Punc” value (C. elegans; [2]) was 0.4 and 0.6, the “NP (number of animals)” value (C. elegans; [2]) was 10 and 7 and the “P (number of animals)” value (C. elegans; [2]) was 0. For the same compound, the “Punc (number of animals)” value (C. elegans; [2]) was 7 and 11, the “AVERAGES Fraction Coiled” value (C. elegans; 15 μM, 90 min) was 0.0 and the “AVERAGES Fraction Paralyzed” value (C. elegans; 15 μM, 90 min) was 0.0. For the same compound, the “AVERAGES Fraction Punc” value (C. elegans; 15 μM, 90 min) was 0.352, the “C1 (number of animals)” value (C. elegans; [3]) was 0 and the “C2 (number of animals)” value (C. elegans; [3]) was 0. The “Fraction Coiled” value (C. elegans; [3]) was 0.0, the “Fraction Paralyzed” value (C. elegans; [3]) was 0.0 and the “Fraction Punc” value (C. elegans; [3]) was 0.5. The “NP (number of animals)” value (C. elegans; [3]) was 9, the “P (number of animals)” value (C. elegans; [3]) was 0 and the “Punc (number of animals)” value (C. elegans; [3]) was 9. The “AVERAGES Fraction Coiled” value (C. elegans; 15 μM, 120 min) was 0.0185, the “AVERAGES Fraction Paralyzed” value (C. elegans; 15 μM, 120 min) was 0.0 and the “AVERAGES Fraction Punc” value (C. elegans; 15 μM, 120 min) was 0.3. For the same compound, the “C1 (number of animals)” value (C. elegans; [4]) was 0, the “C2 (number of animals)” value (C. elegans; [4]) was 0 and the “Fraction Coiled” value (C. elegans; [4]) was 0.0. For the same compound, the “Fraction Paralyzed” value (C. elegans; [4]) was 0.0, the “Fraction Punc” value (C. elegans; [4]) was 0.333 and 0.4 and the “NP (number of animals)” value (C. elegans; [4]) was 12 and 11. For the same compound, the “P (number of animals)” value (C. elegans; [4]) was 0, the “Punc (number of animals)” value (C. elegans; [4]) was 6 and 7 and the “AVERAGES Fraction Coiled” value (C. elegans; 15 μM, 240 min) was 0.0185. The “AVERAGES Fraction Paralyzed” value (C. elegans; 15 μM, 240 min) was 0.0, the “AVERAGES Fraction Punc” value (C. elegans; 15 μM, 240 min) was 0.0741 and the “C1 (number of animals)” value (C. elegans; [5]) was 1. The “C2 (number of animals)” value (C. elegans; [5]) was 0, the “Fraction Coiled” value (C. elegans; [5]) was 0.0556 and the “Fraction Paralyzed” value (C. elegans; [5]) was 0.0. For the same compound, the “Fraction Punc” value (C. elegans; [5]) was 0.0 and 0.167, the “NP (number of animals)” value (C. elegans; [5]) was 15 and the “P (number of animals)” value (C. elegans; [5]) was 0. The “Punc (number of animals)” value (C. elegans; [5]) was 0 and 3, the “AVERAGES Fraction Coiled” value (C. elegans; 15 μM, 360 min) was 0.0 and the “AVERAGES Fraction Paralyzed” value (C. elegans; 15 μM, 360 min) was 0.0. The “AVERAGES Fraction Punc” value (C. elegans; 15 μM, 360 min) was 0.0, the “C1 (number of animals)” value (C. elegans; [6]) was 0 and the “C2 (number of animals)” value (C. elegans; [6]) was 0. For the same compound, the “Fraction Coiled” value (C. elegans; [6]) was 0.0, the “Fraction Paralyzed” value (C. elegans; [6]) was 0.0 and the “Fraction Punc” value (C. elegans; [6]) was 0.0. The “NP (number of animals)” value (C. elegans; [6]) was 18, the “P (number of animals)” value (C. elegans; [6]) was 0 and the “Punc (number of animals)” value (C. elegans; [6]) was 0. For the same compound, the “Next Day Animals alive (moving fine)” value (C. elegans; 15 μM, next day, single replicate) was “alive, recovered”, the “any phene, mean % fraction of young adults exhibiting any phenotype (coiled, jerky-Unc or paralyzed)” value (C. elegans; 15uM) was 45% and the “atypical locomotion (number of animals)” value (C. elegans; 15uM) was 4 and 2 and 5 and 8. For the same compound, the “coiled (number of animals)” value (C. elegans; 15uM) was 0 and 1 and 6 and 3, the “no phene (number of animals)” value (C. elegans; 15uM) was 16 and 15 and 17 and 18 and 0 and the “paralyzed (number of animals)” value (C. elegans; 15uM) was 0 and 9. The “AVERAGES Fraction Coiled” value (C. elegans; 30 μM, 30 min) was 0.0556, the “AVERAGES Fraction Paralyzed” value (C. elegans; 30 μM, 30 min) was 0.0 and the “AVERAGES Fraction Punc” value (C. elegans; 30 μM, 30 min) was 0.6. The “C1 (number of animals)” value (C. elegans; [7]) was 0 and 2, the “C2 (number of animals)” value (C. elegans; [7]) was 1 and 0 and the “Fraction Coiled” value (C. elegans; [7]) was 0.0556 and 0.0 and 0.111. The “Fraction Paralyzed” value (C. elegans; [7]) was 0.0, the “Fraction Punc” value (C. elegans; [7]) was 0.6 and 0.444 and 0.7 and the “NP (number of animals)” value (C. elegans; [7]) was 6 and 10 and 3. The “P (number of animals)” value (C. elegans; [7]) was 0, the “Punc (number of animals)” value (C. elegans; [7]) was 11 and 8 and 13 and the “AVERAGES Fraction Coiled” value (C. elegans; 30 μM, 60 min) was 0.0752. The “AVERAGES Fraction Paralyzed” value (C. elegans; 30 μM, 60 min) was 0.0, the “AVERAGES Fraction Punc” value (C. elegans; 30 μM, 60 min) was 0.7 and the “C1 (number of animals)” value (C. elegans; [8]) was 0. The “C2 (number of animals)” value (C. elegans; [8]) was 3 and 1 and 0, the “Fraction Coiled” value (C. elegans; [8]) was 0.167 and 0.0588 and 0.0 and the “Fraction Paralyzed” value (C. elegans; [8]) was 0.0. The “Fraction Punc” value (C. elegans; [8]) was 0.7 and 0.529 and 0.9, the “NP (number of animals)” value (C. elegans; [8]) was 2 and 7 and 1 and the “P (number of animals)” value (C. elegans; [8]) was 0. The “Punc (number of animals)” value (C. elegans; [8]) was 13 and 9 and 17, the “AVERAGES Fraction Coiled” value (C. elegans; 30 μM, 90 min) was 0.0556 and the “AVERAGES Fraction Paralyzed” value (C. elegans; 30 μM, 90 min) was 0.0556. For the same compound, the “AVERAGES Fraction Punc” value (C. elegans; 30 μM, 90 min) was 0.667, the “C1 (number of animals)” value (C. elegans; [9]) was 0 and the “C2 (number of animals)” value (C. elegans; [9]) was 1 and 2 and 0. The “Fraction Coiled” value (C. elegans; [9]) was 0.0556 and 0.111 and 0.0 and the “Fraction Paralyzed” value (C. elegans; [9]) was 0.167 and 0.0.
